Drawing on patent publication US8785457B2 (Cellzome Limited, priority 2009, dated 2014), this text covers IC50 for 20 molecules.

pIC50: −log10 of the molar value. Read-outs that look alike come from different tables or passages of the source.

What all share (type): binding
One test concerns the target T1, PI3K delta (PI3 Kd) (Homo sapiens, UniProt O00329).
T1 construct: endogenous in cells; host or cells: Jurkat, clone E6-1 (ATCC TIB-152) cell lysate
Briefly: kinobeads assay, PI3K delta. Conditions: kinobeads assay, read-out: Inhibition values (IC50) PI3Kd. The essentials: (§1)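 IC50 values came from dose-response curves after test compound (1:3 series) competed with an immobilized phenylmorpholin-chromen affinity matrix for kinases in Jurkat lysate at 5 mg/mL protein. Eluted captured DNA-PK and PI3Kδ were measured by specific-antibody dot blot and infrared imaging. Buffer was Tris pH 7.4, NP40, MgCl2, NaCl, vanadate, DTT, NaF.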

In another test the target is T2, PI3 Kbeta (PI3 Kb) (Homo sapiens, UniProt P42338).
T2 construct: endogenous in cells; host or cells: cell lysate
T2 sequence (P42338 whole entry): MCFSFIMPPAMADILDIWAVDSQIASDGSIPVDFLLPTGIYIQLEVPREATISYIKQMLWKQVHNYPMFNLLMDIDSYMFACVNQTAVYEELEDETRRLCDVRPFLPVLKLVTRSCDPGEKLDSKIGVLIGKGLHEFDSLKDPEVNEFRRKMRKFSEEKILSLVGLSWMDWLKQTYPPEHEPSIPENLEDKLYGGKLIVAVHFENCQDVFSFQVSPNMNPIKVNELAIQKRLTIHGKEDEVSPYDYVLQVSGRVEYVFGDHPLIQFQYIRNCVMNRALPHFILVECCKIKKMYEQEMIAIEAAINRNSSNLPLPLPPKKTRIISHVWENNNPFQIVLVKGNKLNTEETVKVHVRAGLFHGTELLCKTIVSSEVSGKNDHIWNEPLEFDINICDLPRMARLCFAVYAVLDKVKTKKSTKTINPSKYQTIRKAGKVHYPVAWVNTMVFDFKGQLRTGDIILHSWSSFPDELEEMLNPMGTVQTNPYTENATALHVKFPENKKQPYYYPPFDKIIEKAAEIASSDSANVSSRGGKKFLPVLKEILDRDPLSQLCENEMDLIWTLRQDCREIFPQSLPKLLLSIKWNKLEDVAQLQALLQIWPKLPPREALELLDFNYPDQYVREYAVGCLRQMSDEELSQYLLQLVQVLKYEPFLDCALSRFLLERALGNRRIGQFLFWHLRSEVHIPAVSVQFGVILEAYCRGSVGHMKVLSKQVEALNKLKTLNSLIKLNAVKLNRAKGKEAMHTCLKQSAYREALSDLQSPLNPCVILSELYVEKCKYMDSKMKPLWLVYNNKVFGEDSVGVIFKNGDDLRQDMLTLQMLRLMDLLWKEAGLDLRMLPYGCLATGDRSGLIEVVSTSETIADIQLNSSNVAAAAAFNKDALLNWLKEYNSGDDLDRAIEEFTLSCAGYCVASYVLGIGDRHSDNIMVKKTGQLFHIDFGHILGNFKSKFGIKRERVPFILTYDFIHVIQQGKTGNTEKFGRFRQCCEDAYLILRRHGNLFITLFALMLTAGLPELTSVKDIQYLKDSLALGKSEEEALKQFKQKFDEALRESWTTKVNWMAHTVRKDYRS
T2 sequence (P27986 whole entry partner): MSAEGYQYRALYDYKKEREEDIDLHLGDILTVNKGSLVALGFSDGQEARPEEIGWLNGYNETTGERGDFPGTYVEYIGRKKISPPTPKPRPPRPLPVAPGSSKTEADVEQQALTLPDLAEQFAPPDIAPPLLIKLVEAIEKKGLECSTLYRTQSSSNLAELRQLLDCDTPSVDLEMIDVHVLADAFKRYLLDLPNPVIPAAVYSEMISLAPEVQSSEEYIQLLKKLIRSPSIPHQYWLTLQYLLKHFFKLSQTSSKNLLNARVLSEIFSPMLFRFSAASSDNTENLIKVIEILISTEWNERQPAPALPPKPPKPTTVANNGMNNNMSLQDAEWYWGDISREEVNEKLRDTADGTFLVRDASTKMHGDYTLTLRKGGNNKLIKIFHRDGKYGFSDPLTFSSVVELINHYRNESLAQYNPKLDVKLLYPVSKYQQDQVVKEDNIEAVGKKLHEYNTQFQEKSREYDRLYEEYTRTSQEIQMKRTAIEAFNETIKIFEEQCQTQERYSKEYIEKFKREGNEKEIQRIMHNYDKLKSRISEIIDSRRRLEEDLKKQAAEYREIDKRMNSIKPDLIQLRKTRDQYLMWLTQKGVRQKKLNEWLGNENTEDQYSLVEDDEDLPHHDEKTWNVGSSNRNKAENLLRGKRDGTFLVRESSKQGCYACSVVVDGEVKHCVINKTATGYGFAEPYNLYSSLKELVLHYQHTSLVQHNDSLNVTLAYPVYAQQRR
As to the kind of experiment: kinobeads assay, PI3Kbeta. To be noted: kinobeads assay, Table 6; read-out: Inhibition values (IC50) PI3Kb. Summed up:
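In this bead competition format, compound and immobilized phenylmorpholin-chromen ligand compete for kinases in cell lysate. Eluted captured kinases were measured by multiplexed immunodetection, and IC50 was calculated.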

The target of test [1] is T3, DNA-dependent protein kinase (DNA-PK) (Homo sapiens, UniProt P78527).
T3 construct: endogenous in cells; host or cells: Jurkat, clone E6-1 (ATCC TIB-152) cell lysate
As to the kind of experiment: kinobeads assay, DNA-PK. To be noted: kinobeads assay. Summed up: as §1

The mark [2] stands for this setting: Table 4, read-out: Inhibition values (IC50) DNA-PK.
Setting [3] is: Table 6, read-out: Inhibition values (IC50) DNAPK.

T1 sequence (O00329 whole entry): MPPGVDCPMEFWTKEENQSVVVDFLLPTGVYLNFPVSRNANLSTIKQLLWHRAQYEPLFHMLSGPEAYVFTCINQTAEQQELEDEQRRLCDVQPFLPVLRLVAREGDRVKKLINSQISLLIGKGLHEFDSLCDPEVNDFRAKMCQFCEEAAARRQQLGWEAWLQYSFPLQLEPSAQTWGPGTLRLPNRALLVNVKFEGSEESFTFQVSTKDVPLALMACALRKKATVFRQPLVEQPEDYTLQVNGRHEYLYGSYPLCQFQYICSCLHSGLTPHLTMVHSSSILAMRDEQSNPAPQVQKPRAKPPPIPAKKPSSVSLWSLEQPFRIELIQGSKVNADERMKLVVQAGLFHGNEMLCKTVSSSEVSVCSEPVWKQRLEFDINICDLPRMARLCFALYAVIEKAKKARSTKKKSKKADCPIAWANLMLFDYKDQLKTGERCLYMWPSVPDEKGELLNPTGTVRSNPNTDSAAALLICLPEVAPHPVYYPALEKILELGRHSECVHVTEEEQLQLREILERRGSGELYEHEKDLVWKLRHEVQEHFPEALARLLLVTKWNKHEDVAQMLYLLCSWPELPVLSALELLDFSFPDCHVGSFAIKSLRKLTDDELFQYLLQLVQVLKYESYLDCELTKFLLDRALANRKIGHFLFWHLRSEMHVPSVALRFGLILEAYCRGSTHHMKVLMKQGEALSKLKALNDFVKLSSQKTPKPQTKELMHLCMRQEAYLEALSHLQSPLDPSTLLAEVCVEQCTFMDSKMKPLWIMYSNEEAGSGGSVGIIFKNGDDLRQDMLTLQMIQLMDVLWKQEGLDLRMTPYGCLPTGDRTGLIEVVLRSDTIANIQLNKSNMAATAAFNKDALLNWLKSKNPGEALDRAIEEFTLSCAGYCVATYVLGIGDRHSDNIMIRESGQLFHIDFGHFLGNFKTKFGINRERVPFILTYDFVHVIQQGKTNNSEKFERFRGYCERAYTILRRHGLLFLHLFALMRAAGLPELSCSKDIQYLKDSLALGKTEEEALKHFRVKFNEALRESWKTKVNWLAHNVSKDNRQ
T1 sequence (P27986 whole entry partner): as the sequence (P27986 whole entry partner) above

What is called pIC50 is the negative decadic logarithm of the IC50, by convention in mol/L. In the case of `CCNC(=O)Nc1ccc(-c2nc3c(c(N4CCOC[C@@H]4C)n2)CN(C(=O)c2ccc(F)cc2)C3)cc1` [Example 19, (S)-1-ethyl-3-(4-(6-(4-fluorobenzoyl)-4-(3-methylmorpholino)-6,7-dihydro-5H-pyrrolo[3,4-d]pyrimidin-2-yl)phenyl)urea], the pIC50 (on PI3K delta (PI3 Kd) (Table 4); on PI3K delta (PI3 Kd) (Table 6); at PI3 Kbeta (PI3 Kb); in test [1] (setting [2]); in test [1] (setting [3])) was below 5.00 each time.
For `CCNC(=O)Nc1ccc(-c2nc3c(c(N4CCOC[C@@H]4C)n2)CN(C(=O)C(C)C)C3)cc1` [Example 21, (S)-1-ethyl-3-(4-(6-isobutyryl-4-(3-methylmorpholino)-6,7-dihydro-5H-pyrrolo[3,4-d]pyrimidin-2-yl)phenyl)urea], the pIC50 on PI3K delta (PI3 Kd) (Table 4) was 5.00 to 6.00; at PI3K delta (PI3 Kd) (Table 6) it was 5.00 to 6.00; at PI3 Kbeta (PI3 Kb), below 5.00; in test [1] (setting [2]), below 5.00; in test [1] (setting [3]) it was below 5.00.
`CCNC(=O)Nc1ccc(-c2nc3c(c(N4CCOC[C@@H]4C)n2)CN(C(=O)C2CC2)C3)cc1` [Example 23, (S)-1-(4-(6-(cyclopropanecarbonyl)-4-(3-methylmorpholino)-6,7-dihydro-5H-pyrrolo[3,4-d]pyrimidin-2-yl)phenyl)-3-ethylurea]: the negative logarithm of the IC50 (pIC50) is 5.00 to 6.00 at PI3K delta (PI3 Kd) (Table 4); 5.00 to 6.00 on PI3K delta (PI3 Kd) (Table 6); below 5.00 on PI3 Kbeta (PI3 Kb); below 5.00 in test [1] (setting [2]); below 5.00 in test [1] (setting [3]).
As to `CCNC(=O)Nc1ccc(-c2nc3c(c(N4CCOC[C@@H]4C)n2)CCN(C(=O)c2ccc(F)cc2)C3)cc1` [Example 24, (S)-1-ethyl-3-(4-(7-(4-fluorobenzoyl)-4-(3-methylmorpholino)-5,6,7,8-tetrahydropyrido[3,4-d]pyrimidin-2-yl)phenyl)urea], the negative-log IC50 (pIC50) (at PI3K delta (PI3 Kd) (Table 4); at PI3K delta (PI3 Kd) (Table 6); on PI3 Kbeta (PI3 Kb); in test [1] (setting [2]); in test [1] (setting [3])) was below 5.00 in each case.
For `C[C@H]1COCCN1c1nc(-c2ccc(NC(=O)NC3CC3)cc2)nc2c1CN(CC(C)(C)C)C2` [Example 25, (S)-1-cyclopropyl-3-(4-(4-(3-methylmorpholino)-6-neopentyl-6,7-dihydro-5H-pyrrolo[3,4-d]pyrimidin-2-yl)phenyl)urea], the negative-log IC50 (pIC50) (on PI3K delta (PI3 Kd) (Table 4); at PI3K delta (PI3 Kd) (Table 6); on PI3 Kbeta (PI3 Kb); in test [1] (setting [2]); in test [1] (setting [3])) was below 5.00 each time.
On to `CCNC(=O)Nc1ccc(-c2nc3c(c(N4CCOC[C@@H]4C)n2)CCN(CC)C3)cc1` [Example 27, (S)-1-ethyl-3-(4-(7-ethyl-4-(3-methylmorpholino)-5,6,7,8-tetrahydropyrido[3,4-d]pyrimidin-2-yl)phenyl)urea], for which the negative-log IC50 (pIC50) on PI3K delta (PI3 Kd) (Table 4) is below 5.00; at PI3K delta (PI3 Kd) (Table 6), below 5.00; on PI3 Kbeta (PI3 Kb), 5.00 to 6.00; in test [1] (setting [2]) it was below 5.00; in test [1] (setting [3]), below 5.00.
As for `CCNC(=O)Nc1ccc(-c2nc3c(c(N4CCOC[C@@H]4C)n2)CN(CC2CC2)C3)cc1` [Example 28, (S)-1-(4-(6-(cyclopropylmethyl)-4-(3-methylmorpholino)-6,7-dihydro-5H-pyrrolo[3,4-d]pyrimidin-2-yl)phenyl)-3-ethylurea], the negative logarithm of the IC50 (pIC50) (on PI3K delta (PI3 Kd) (Table 4); on PI3K delta (PI3 Kd) (Table 6); at PI3 Kbeta (PI3 Kb); in test [1] (setting [2]); in test [1] (setting [3])) was below 5.00 throughout.
As to `CCNC(=O)Nc1ccc(-c2nc3c(c(N4CCOC[C@@H]4C)n2)CN(Cc2ccc(F)cc2)C3)cc1` [Example 29, (S)-1-ethyl-3-(4-(6-(4-fluorobenzyl)-4-(3-methylmorpholino)-6,7-dihydro-5H-pyrrolo[3,4-d]pyrimidin-2-yl)phenyl)urea], the negative-log IC50 (pIC50) (on PI3K delta (PI3 Kd) (Table 4); on PI3K delta (PI3 Kd) (Table 6); at PI3 Kbeta (PI3 Kb); in test [1] (setting [2]); in test [1] (setting [3])) was below 5.00 each time.
For the molecule `CCOC(=O)N1Cc2nc(-c3ccc(NC(=O)NC4CC4)cc3)nc(N3CCOC[C@@H]3C)c2C1` [Example 34, (S)-ethyl 2-(4-(3-cyclopropylureido)phenyl)-4-(3-methylmorpholino)-5H-pyrrolo[3,4-d]pyrimidine-6(7H)-carboxylate], the negative-log IC50 (pIC50) (at PI3K delta (PI3 Kd) (Table 4); at PI3K delta (PI3 Kd) (Table 6); on PI3 Kbeta (PI3 Kb); in test [1] (setting [2]); in test [1] (setting [3])) was below 5.00 throughout.
Consider `CCNC(=O)Nc1ccc(-c2nc3c(c(N4CCOC[C@@H]4C)n2)CCN(C)C3)cc1` [Example 35, (S)-1-ethyl-3-(4-(7-methyl-4-(3-methylmorpholino)-5,6,7,8-tetrahydropyrido[3,4-d]pyrimidin-2-yl)phenyl)urea], for which the negative-log IC50 (pIC50) (on PI3K delta (PI3 Kd) (Table 4); at PI3K delta (PI3 Kd) (Table 6); at PI3 Kbeta (PI3 Kb); in test [1] (setting [2]); in test [1] (setting [3])) was below 5.00 each time.
Regarding `CCNC(=O)Nc1ccc(-c2nc3c(c(N4CCOC[C@@H]4C)n2)CCN(CC2CC2)C3)cc1` [Example 37, (S)-1-(4-(7-(cyclopropylmethyl)-4-(3-methylmorpholino)-5,6,7,8-tetrahydropyrido[3,4-d]pyrimidin-2-yl)phenyl)-3-ethylurea], the pIC50 (on PI3K delta (PI3 Kd) (Table 4); at PI3K delta (PI3 Kd) (Table 6); at PI3 Kbeta (PI3 Kb); in test [1] (setting [2]); in test [1] (setting [3])) was below 5.00 in each case.
On to `CCNC(=O)Nc1ccc(-c2nc3c(c(N4CCOC[C@@H]4C)n2)CN(CC)C3)cc1` [Example 39, (S)-1-ethyl-3-(4-(6-ethyl-4-(3-methylmorpholino)-6,7-dihydro-5H-pyrrolo[3,4-d]pyrimidin-2-yl)phenyl)urea], for which the negative logarithm of the IC50 (pIC50) (at PI3K delta (PI3 Kd) (Table 4); on PI3K delta (PI3 Kd) (Table 6); in test [1] (setting [2]); in test [1] (setting [3])) was below 5.00 throughout.
Turning to `C[C@H]1COCCN1c1nc(-c2ccc(NC(=O)NC3CC3)cc2)nc2c1CCN(CC1CC1)C2` [Example 40, (S)-1-cyclopropyl-3-(4-(7-(cyclopropylmethyl)-4-(3-methylmorpholino)-5,6,7,8-tetrahydropyrido[3,4-d]pyrimidin-2-yl)phenyl)urea], the pIC50 is below 5.00 at PI3K delta (PI3 Kd) (Table 4); below 5.00 at PI3K delta (PI3 Kd) (Table 6); 5.00 to 6.00 at PI3 Kbeta (PI3 Kb); below 5.00 in test [1] (setting [2]); below 5.00 in test [1] (setting [3]).
For the molecule `C[C@H]1COCCN1c1nc(-c2ccc(NC(=O)NC3CC3)cc2)nc2c1CCN(CC(C)(C)C)C2` [Example 41, (S)-1-cyclopropyl-3-(4-(4-(3-methylmorpholino)-7-neopentyl-5,6,7,8-tetrahydropyrido[3,4-d]pyrimidin-2-yl)phenyl)urea], the negative-log IC50 (pIC50) (at PI3K delta (PI3 Kd) (Table 4); at PI3K delta (PI3 Kd) (Table 6); on PI3 Kbeta (PI3 Kb); in test [1] (setting [2]); in test [1] (setting [3])) was below 5.00 each time.
As for `CC(C)C(=O)N1Cc2nc(-c3ccc(NC(=O)NC4CC4)cc3)nc(N3CCOC[C@@H]3C)c2C1` [Example 44, (S)-1-cyclopropyl-3-(4-(6-isobutyryl-4-(3-methylmorpholino)-6,7-dihydro-5H-pyrrolo[3,4-d]pyrimidin-2-yl)phenyl)urea], the pIC50 (at PI3K delta (PI3 Kd) (Table 4); at PI3K delta (PI3 Kd) (Table 6); in test [1] (setting [2]); in test [1] (setting [3])) was below 5.00 each time.
In the case of `CC(C)N1Cc2nc(-c3ccc(NC(=O)NC4CC4)cc3)nc(N3CCOC[C@@H]3C)c2C1` [Example 46, (S)-1-cyclopropyl-3-(4-(6-isopropyl-4-(3-methylmorpholino)-6,7-dihydro-5H-pyrrolo[3,4-d]pyrimidin-2-yl)phenyl)urea], the pIC50 (on PI3K delta (PI3 Kd) (Table 4); on PI3K delta (PI3 Kd) (Table 6); in test [1] (setting [2]); in test [1] (setting [3])) was below 5.00 throughout.
For `CNC(=O)Nc1ccc(-c2nc3c(c(N4CCOC[C@@H]4C)n2)CN(CC2CC2)C3)cc1` [Example 47, (S)-1-(4-(6-(cyclopropylmethyl)-4-(3-methylmorpholino)-6,7-dihydro-5H-pyrrolo[3,4-d]pyrimidin-2-yl)phenyl)-3-methylurea], the pIC50 on PI3K delta (PI3 Kd) (Table 4) is 5.00 to 6.00; at PI3K delta (PI3 Kd) (Table 6), 5.00 to 6.00; in test [1] (setting [2]), below 5.00; in test [1] (setting [3]), below 5.00.
Regarding `C[C@H]1COCCN1c1nc(-c2ccc(NC(N)=O)cc2)nc2c1CN(CC1CC1)C2` [Example 48, (S)-1-(4-(6-(cyclopropylmethyl)-4-(3-methylmorpholino)-6,7-dihydro-5H-pyrrolo[3,4-d]pyrimidin-2-yl)phenyl)urea], the negative logarithm of the IC50 (pIC50) at PI3K delta (PI3 Kd) (Table 4) is 5.00 to 6.00; on PI3K delta (PI3 Kd) (Table 6) it was 5.00 to 6.00; in test [1] (setting [2]), below 5.00; in test [1] (setting [3]), below 5.00.
As to `CCCNC(=O)Nc1ccc(-c2nc3c(c(N4CCOC[C@@H]4C)n2)CN(CC2CC2)C3)cc1` [Example 49, (S)-1-(4-(6-(cyclopropylmethyl)-4-(3-methylmorpholino)-6,7-dihydro-5H-pyrrolo[3,4-d]pyrimidin-2-yl)phenyl)-3-propylurea], the pIC50 (at PI3K delta (PI3 Kd) (Table 4); at PI3K delta (PI3 Kd) (Table 6); in test [1] (setting [2]); in test [1] (setting [3])) was below 5.00 in each case.
Regarding `CC(C)NC(=O)Nc1ccc(-c2nc3c(c(N4CCOC[C@@H]4C)n2)CN(CC2CC2)C3)cc1` [Example 50, (S)-1-(4-(6-(cyclopropylmethyl)-4-(3-methylmorpholino)-6,7-dihydro-5H-pyrrolo[3,4-d]pyrimidin-2-yl)phenyl)-3-isopropylurea], the pIC50 (on PI3K delta (PI3 Kd) (Table 4); on PI3K delta (PI3 Kd) (Table 6); in test [1] (setting [2]); in test [1] (setting [3])) was below 5.00 throughout.
